In patent US6838476B1, “Imidazoles with anti-inflammatory activity” (J. Uriach & Cia, SA, priority 1998, dated 2005):

Legend:
[1] = biological target: T1, cyclooxygenase-1 (COX-1) (Homo sapiens, UniProt P23219); assay: Inhibition of cyclooxygenase-1 (COX-1) activity in human blood (thromboxane B2 levels after ionophore A23187); type: cell-based; conditions: read-out: % inhibition COX-1 (10 μM), 10 μM test compound
T1 construct: from tissue; host or cells: heparinized human whole blood
Procedure: (§1) Inhibition of cyclooxgenase-1 (COX-1) and cyclooxygenase-2 (COX-2) Activity in Human Blood
Heparinized human blood from healthy volunteers who had not taken non-steroidal anti-inflammatory drugs (NSAIDs) for a week, and neither alcohol nor xanthines 24 h before blood collection, is used. Blood is divided into two groups; one will be used to determine COX-1 activity and the other one for COX-2. The procedure to follow will be different in each case.
For COX-1, 12-mL tubes are used. 5 μL of the test compound (in DMSO solution; in duplicate) are placed in each tube. Aditionally two tubes for blanks and two tubes for controls containing 5 μL of DMSO are used. Next, 1 mL of blood is added to each tube and they are stirred. The tubes are placed in a thermostatized bath at 37° C. for 5 h. Then, 5 μL of 5 mM ionophore A23187 is added to each tube, except to the blanks, and tubes are incubated for 30 min more at 37° C. After this time, the tubes are placed in ice and 100 μL of a 100 mM EGTA solution is added to stop the reaction. 2.5 mL of methanol is added to each tube to reach a final concentration of 70%. The tubes are stirred and frozen at −70° C. till their use. The COX-1 activity is determined by measuring thromboxane B2 levels in the samples. Blood is defrozen and centrifuged at 2000 g for 10 min at 4° C. 1 mL of supematant is evaporated under nitrogen to dryness. The solid residue thus obtained is resuspended in 1 mL of saline and the thromboxane B2 levels in these samples are determined using a kit (Kit Thromboxane B2, Biotrak EIA system RPN220 Amershan), according to the manufacturer's instructions.

[2] = biological target: T2, cyclooxygenase-2 (COX-2) (Homo sapiens, UniProt P35354); assay: Inhibition of cyclooxygenase-2 (COX-2) activity in human blood (prostaglandin E2 levels after LPS, aspirin added); type: cell-based; conditions: for inhibition at 1 µM: read-out: % inhibition COX-2 (1 μM), 1 μM test compound; for inhibition at 10 µM: read-out: % inhibition COX-2 (10 μM), 10 μM test compound
T2 construct: 5 μL of LPS is also added (in order to induce COX-2 activy); from tissue; host or cells: heparinized human whole blood, LPS-stimulated, with aspirin added
T2 sequence (P35354 18-604): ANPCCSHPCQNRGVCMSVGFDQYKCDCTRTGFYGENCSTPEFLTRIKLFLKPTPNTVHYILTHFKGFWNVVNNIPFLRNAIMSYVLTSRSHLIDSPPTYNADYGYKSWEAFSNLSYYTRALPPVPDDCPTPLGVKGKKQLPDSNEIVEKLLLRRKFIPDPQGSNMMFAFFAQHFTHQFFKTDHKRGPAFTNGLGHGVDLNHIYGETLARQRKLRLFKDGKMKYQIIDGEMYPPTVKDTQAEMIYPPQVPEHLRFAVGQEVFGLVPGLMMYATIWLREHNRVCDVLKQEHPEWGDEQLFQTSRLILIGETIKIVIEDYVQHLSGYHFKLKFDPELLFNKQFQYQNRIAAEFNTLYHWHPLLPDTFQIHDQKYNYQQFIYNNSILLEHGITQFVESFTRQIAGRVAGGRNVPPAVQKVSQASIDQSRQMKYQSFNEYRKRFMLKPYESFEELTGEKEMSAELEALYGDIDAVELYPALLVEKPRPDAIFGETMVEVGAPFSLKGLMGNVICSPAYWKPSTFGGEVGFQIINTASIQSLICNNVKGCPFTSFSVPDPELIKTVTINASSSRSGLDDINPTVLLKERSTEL
Procedure: as §1
Blood is divided into two groups; one will be used to determine COX-1 activity and the other one for COX-2. The procedure to follow will be different in each case.
For COX-2, 3-mL tubes are prepared in duplicate containing 5 μL of the test compound (solution in DMSO) and 5 μL of vehicle in the case of blanks and controls. To each tube, 5 μL of a 2 mg/mL solution of aspirin in DMSO is also added (in order to inhibit COX-1 activity), and to all tubes except the blanks 5 μL of LPS is also added (in order to induce COX-2 activy). Finally, 1 mL of heparinized blood is added to each tube, and tubes are then stirred and placed in a thermostatized bath at 37° C. for 24 h. Then, tubes are centrifuged at 2000 g for 10 min at 4° C., the resulting plasma is collected and is frozen at −70° C. until use. COX-2 activity is determined by measuring prostaglandin E2 levels in the samples. The plasma stored at −70° C. is defrozen and prostaglandin E2 levels in these samples are determined using a kit (Kit Prostaglandin E2, Biotrak EIA system RPN222 Amershan), according to the manufacturer's instructions.

T1 sequence (P23219 24-599): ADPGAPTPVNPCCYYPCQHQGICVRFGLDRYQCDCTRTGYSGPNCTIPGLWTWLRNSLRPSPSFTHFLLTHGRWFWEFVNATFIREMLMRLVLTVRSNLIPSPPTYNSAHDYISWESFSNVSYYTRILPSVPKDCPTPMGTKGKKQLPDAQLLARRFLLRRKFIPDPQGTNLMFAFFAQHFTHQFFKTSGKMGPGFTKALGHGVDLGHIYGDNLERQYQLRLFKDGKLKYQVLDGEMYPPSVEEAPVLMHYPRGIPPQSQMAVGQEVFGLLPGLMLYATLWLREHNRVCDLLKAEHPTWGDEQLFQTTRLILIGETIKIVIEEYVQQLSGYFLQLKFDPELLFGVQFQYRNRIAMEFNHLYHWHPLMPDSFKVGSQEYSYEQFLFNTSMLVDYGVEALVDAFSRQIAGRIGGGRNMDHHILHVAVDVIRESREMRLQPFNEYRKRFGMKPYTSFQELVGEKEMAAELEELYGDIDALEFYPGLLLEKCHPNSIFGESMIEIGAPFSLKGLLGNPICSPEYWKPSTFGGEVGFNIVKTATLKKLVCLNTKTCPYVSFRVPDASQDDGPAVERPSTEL

melting point [°C]	inhibition at 10 µM [1] [%]	inhibition at 1 µM [2] [%]	inhibition at 10 µM [2] [%]	Compound
156 to 160	70.6	83.6	100	Cc1ccc(-n2c(-c3ccc(S(C)(=O)=O)cc3)cnc2Cl)cc1 [Example 12, 2-Chloro-1-(4-methylphenyl)-5-(4-methylsulfonylphenyl)imidazole]
	47.5	75.1	100	Cc1ccc(-c2c(Cl)ncn2-c2ccc(S(C)(=O)=O)cc2)cc1F [4(8), 4-Chloro-5-(3-fluoro-4-methylphenyl)-1-(4-methylsulfonylphenyl)-imidazole]
	60.1	85.6	100	CS(=O)(=O)c1ccc(-c2cnc(Cl)n2-c2ccc(F)cc2)cc1 [Example 7, 2Chloro-1-(4-fluorophenyl)-5-(4-methylsulfonylphenyl)imidazole]
	33.8	85.2	100	CS(=O)(=O)c1ccc(-n2cnc(Br)c2-c2ccc(F)cc2)cc1 [Example 5, 4-Bromo-5-(4-fluorophenyl)-1-(4-methylsulfonylphenyl)imidazole]
	42.5		100	CS(=O)(=O)c1ccc(-n2cnc(Cl)c2-c2ccc(Cl)nc2)cc1 [4(16), 4-Chloro-5-(6-chloro-3-pyridyl)-1-(4-methylsulfonylphenyl)imidazole]
	8.3		86.5	Cc1ncn(-c2ccc(S(C)(=O)=O)cc2)c1-c1ccc(F)cc1 [Example 3, 5-(4-Fluorophenyl)-4-methyl-1-(4-methylsulfonylphenyl)imidazole]
	34		100	Cc1ccc(-c2c(Cl)ncn2-c2ccc(S(C)(=O)=O)cc2)cc1 [4(1), 4-Chloro-5-(4-methylphenyl)-1-(4-methylsulfonylphenyl)imidazole]
	72.1	100	100	CCOc1ccc(-c2c(Cl)ncn2-c2ccc(S(C)(=O)=O)cc2)cc1 [4(22), 4-Chloro-5-(4-ethoxyphenyl)-1-(4-methylsulfonylphenyl)imidazole]
